Assay results reported in US20080280817A1, “MODIFIED AMINO ACID FOR THE INHIBITION OF PLATELET AGGREGATION” (NOVARTIS AG, priority 2002, published 2008).

Columns and labels:
Assay type in all cases: cell-based, human
[1] = system: platelet rich plasma (PRP); test: Collagen-stimulated platelet aggregation in PRP (aggregometer, optical density)
Experimental: (§1) Freshly drawn venous blood from healthy volunteers is collected into 0.1 vol. […] trisodium citrate. The donors have not taken any medication during two weeks prior to blood collection. PRP is prepared by centrifugation of the freshly drawn blood (150 g, 15 minutes at 22° C.) and the final platelet concentration is standardized at 200 000 cell/μL by dilution in autologous platelet-free plasma, prepared by centrifugation (1200 g, 10 minutes at 22° C.). The supernatant is collected. Samples of PRP are pre-incubated for 1 minute (22° C.) with varying concentrations of 5-CNAC in saline (stored at −20° C.).
(§2) In order to assess the inhibitory effect of 5-CNAC on platelet aggregation, the following studies are performed. Samples of 0.400 mL PRP containing 5-CNAC are prepared as above. To these samples is added 0.005 mL of an aggregation stimulator which is either ADP (Roche Molecular Biochemicals, Mannheim) or collagen (Horm Chemie, Munich). The final concentrations of either the ADP or collagen are as indicated in the “Results” section. Aggregation studies are performed in a Chronolog 4 channel aggregometer (type CH570VS-CH810). The aggregometer automatically calibrates the donor-dependent difference in optical density between platelet-free plasma (0% optical density) and the PRP (100% optical density) of a particular donor. The extent of aggregation is measured by expressing the maximal difference in optical density (independent of the time after the addition of the aggregation stimulator, i.e., either ADP or collagen) and normalized taking the control curves (without 5-CNAC) as an internal standard set at 100%.

[2] = system: platelet rich plasma (PRP); test: Addition of 5-CNAC alone to PRP; platelet morphology
Experimental: as §1
In order to assess the inhibitory effect of 5-CNAC on platelet aggregation, the following studies are performed. Samples of 0.400 mL PRP containing 5-CNAC are prepared as above. To these samples is added 0.005 mL of an aggregation stimulator which is either ADP (Roche Molecular Biochemicals, Mannheim) or collagen (Horm Chemie, Munich). The final concentrations of either the ADP or collagen are as indicated in the “Results” section. […] The extent of aggregation is measured by expressing the maximal difference in optical density (independent of the time after the addition of the aggregation stimulator, i.e., either ADP or collagen) and normalized taking the control curves (without 5-CNAC) as an internal standard set at 100%.

[3] = system: platelet rich plasma (PRP); test: ADP-induced platelet aggregation in PRP (aggregometer, optical density)
Experimental: as §1, §2

O=C(O)CCCCCCCNC(=O)c1cc(Cl)ccc1O [5-CNAC, N-(5-chlorosalicyloyl)-8-aminocaprylic acid]
concentration at which inhibition is evident ([1]; 1 μg/mL collagen): ≥ 50 µM | concentration showing platelet aggregation inhibition ([1]; 2 μg/mL collagen, one individual): about 1 mM | concentration giving some inhibition of platelet aggregation ([1]; 2.5 μg/mL collagen, PRP of one individual, not at lower concentrations): 200 µM | concentration at which inhibition of platelet aggregation becomes detectable ([1]; 5 μg/mL collagen): about 1 mM | effect on platelets (aggregation) ([1]; 5 μg/mL collagen, 100 μM 5-CNAC): unaffected | phase of the aggregation curve in which inhibition is seen ([1]; collagen-stimulated aggregation): becomes apparent in the second phase of the aggregation curve | triggering of platelet aggregation by the compound alone ([2]; 5-CNAC alone added to PRP, no stimulator): does not trigger platelet aggregation | effect on platelet morphology (swirling of the cells) ([2]; PRP): does not alter platelet morphology | inhibition of platelet aggregation at suboptimal ADP stimulation ([3]; 3 μM and 2 μM ADP compared with 5 μM ADP): platelet aggregation is inhibited by lower concentrations of 5-CNAC | concentration at which inhibition of platelet aggregation becomes apparent ([3]; 5 μM ADP (maximal stimulation), PRP from 12 healthy subjects): ≥ 2 µM | phase of the aggregation curve in which inhibition is seen ([3]; all concentrations of ADP tested): evident in the second phase of the aggregation curve, but is not observed in the initial phase | change in cell shape upon ADP addition (increase in optical density) ([3]; in the presence of 5-CNAC): undisturbed | inhibition of secondary aggregation ([3]; later part of the aggregation curve): dose-dependently inhibits the later part of the aggregation curve
